From patent US8952024B2, “Herbicidal pyrimidone derivatives” (E I du Pont de Nemours and Company, priority 2009, dated 2015)

Columns and labels:
Format in all cases: in vivo
[1] = tested on: Surinam grass (Brachiaria decumbens); test: Test B pre-/postemergence plant response; settings: for Surinam Grass plant response rating (0 to 100 scale): 62 g ai/ha, postemergence, 0 is no effect, 100 is complete control; for Plant response rating, Surinam Grass: Postemergence
Outline: (§1)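 Plants treated either at seeding (loam/sand soil) or postemergence at 2 to 18 cm height, using a surfactant-containing non-phytotoxic solvent formulation. Evaluation was visual after 13 to 15 days, 0 to 100 scale relative to controls.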

[2] = tested on: blackgrass (Alopecurus myosuroides); test: Test B pre-/postemergence plant response; settings: for Blackgrass plant response rating (0 to 100 scale): 62 g ai/ha, postemergence, 0 is no effect, 100 is complete control; for Plant response rating, Blackgrass: Postemergence
Outline: as §1

corn (Zea mays) = test: Test B pre-/postemergence plant response; settings: for Corn plant response rating (0 to 100 scale): 62 g ai/ha, postemergence, 0 is no effect, 100 is complete control; for Plant response rating, Corn: Postemergence
Outline: as §1

[3] = tested on: giant foxtail (Setaria faberii); test: Test B pre-/postemergence plant response; settings: for Foxtail, Giant plant response rating (0 to 100 scale): 62 g ai/ha, postemergence, 0 is no effect, 100 is complete control; for Plant response rating, Foxtail, Giant: Postemergence
Outline: as §1

[4] = tested on: goosegrass (Eleusine indica); test: Test B pre-/postemergence plant response; settings: for Goosegrass plant response rating (0 to 100 scale): 62 g ai/ha, postemergence, 0 is no effect, 100 is complete control; for Plant response rating, Goosegrass: Postemergence
Outline: as §1

[5] = tested on: green foxtail (Setaria viridis); test: Test B pre-/postemergence plant response; settings: for Foxtail, Green plant response rating (0 to 100 scale): 62 g ai/ha, postemergence, 0 is no effect, 100 is complete control; for Plant response rating, Foxtail, Green: Postemergence
Outline: as §1

[6] = tested on: johnsongrass (Sorghum halepense); test: Test B pre-/postemergence plant response; settings: for Johnsongrass plant response rating (0 to 100 scale): 62 g ai/ha, postemergence, 0 is no effect, 100 is complete control; for Plant response rating, Johnsongrass: Postemergence
Outline: as §1

[7] = tested on: lambsquarters (Chenopodium album); test: Test B pre-/postemergence plant response; settings: for Lambsquarters plant response rating (0 to 100 scale): 62 g ai/ha, postemergence, 0 is no effect, 100 is complete control; for Plant response rating, Lambsquarters: Postemergence
Outline: as §1

[8] = tested on: pigweed (Amaranthus retroflexus); test: Test B pre-/postemergence plant response; settings: for Pigweed plant response rating (0 to 100 scale): 62 g ai/ha, postemergence, 0 is no effect, 100 is complete control; for Plant response rating, Pigweed: Postemergence
Outline: as §1

[9] = tested on: ragweed (common ragweed, Ambrosia elatior); test: Test B pre-/postemergence plant response; settings: for Ragweed plant response rating (0 to 100 scale): 62 g ai/ha, postemergence, 0 is no effect, 100 is complete control; for Plant response rating, Ragweed: Postemergence
Outline: as §1

wild oat (Avena fatua) = test: Test B pre-/postemergence plant response; settings: for Oat, Wild plant response rating (0 to 100 scale): 62 g ai/ha, postemergence, 0 is no effect, 100 is complete control; for Plant response rating, Oat, Wild: Postemergence
Outline: as §1

rice (Oryza sativa) = test: Test B flooded paddy test; settings: for Plant response rating, Flood, Rice: 250 g ai/ha, flooded paddy test, visual rating on 0 to 100 scale (0 no effect, 100 complete control) after 13 to 15 days; for Plant response rating, Rice: Flood (flooded paddy test), 13 to 15 days; for Rice plant response rating: Flood, 31 g ai/ha, scale 0 to 100 (0 no effect, 100 complete control)
Outline: (§2)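 Plants were grown to the 2-leaf stage, then pots were flooded to 3 cm above the soil and compounds were applied directly into the paddy water. That depth was held throughout. After 13 to 15 days in a greenhouse, injury was visually rated against controls on a 0–100 scale.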

[10] = tested on: umbrella sedge (Cyperus difformis); test: Test B flooded paddy test; settings: for Plant response rating, Flood, Sedge, Umbrella: 250 g ai/ha, flooded paddy test, visual rating on 0 to 100 scale (0 no effect, 100 complete control) after 13 to 15 days; for Plant response rating, Sedge, Umbrella: Flood (flooded paddy test), 13 to 15 days; for Sedge, Umbrella plant response rating: Flood, 31 g ai/ha, scale 0 to 100 (0 no effect, 100 complete control)
Outline: as §2

[11] = 31 g ai/ha, 0 to 100 scale (0 no effect, 100 complete control)
[12] = 125 g ai/ha, scale 0 to 100 (0 no effect, 100 complete control)
[13] = 250 g ai/ha, scale 0 to 100 (0 no effect, 100 complete control), 13 to 15 days
[14] = 62 g ai/ha, scale of 0 to 100 where 0 is no effect and 100 is complete control
[15] = 125 g ai/ha, scale 0 to 100, 0 is no effect, 100 is complete control

CCCn1c(-c2cc(F)cc(F)c2)ncc(C(=O)C2=C(O)CCCC2=O)c1=O [Compound 152]
Surinam Grass plant response rating (0 to 100 scale) ([1]; 13 to 15 days): 85
Plant response rating, Surinam Grass [1, 11]: 75
Plant response rating, Surinam Grass [1, 12]: 90
Plant response rating, Surinam Grass [1, 13]: 95
Blackgrass plant response rating (0 to 100 scale) ([2]; 13 to 15 days): 35
Plant response rating, Blackgrass [2, 11]: 20
Plant response rating, Blackgrass [2, 12]: 55
Plant response rating, Blackgrass [2, 13]: 70
Corn plant response rating (0 to 100 scale) (corn (Zea mays); 13 to 15 days): 45
Plant response rating, Corn (corn (Zea mays); [11]): 25
Plant response rating, Corn (corn (Zea mays); [12]): 65
Plant response rating, Corn (corn (Zea mays); [13]): 80
Foxtail, Giant plant response rating (0 to 100 scale) ([3]; 13 to 15 days): 85
Plant response rating, Foxtail, Giant [3, 11]: 80
Plant response rating, Foxtail, Giant [3, 12]: 95
Plant response rating, Foxtail, Giant [3, 13]: 98
Goosegrass plant response rating (0 to 100 scale) ([4]; 13 to 15 days): 85
Plant response rating, Goosegrass [4, 11]: 80
Plant response rating, Goosegrass [4, 12]: 95
Plant response rating, Goosegrass [4, 13]: 98
Foxtail, Green plant response rating (0 to 100 scale) ([5]; 13 to 15 days): 75
Plant response rating, Foxtail, Green [5, 11]: 75
Plant response rating, Foxtail, Green [5, 12]: 98
Plant response rating, Foxtail, Green [5, 13]: 100
Johnsongrass plant response rating (0 to 100 scale) ([6]; 13 to 15 days): 90
Plant response rating, Johnsongrass [6, 11]: 70
Plant response rating, Johnsongrass [6, 12]: 95
Plant response rating, Johnsongrass [6, 13]: 100
Lambsquarters plant response rating (0 to 100 scale) ([7]; 13 to 15 days): 95
Plant response rating, Lambsquarters [7, 11]: 85
Plant response rating, Lambsquarters [7, 12]: 98
Plant response rating, Lambsquarters [7, 13]: 100
Pigweed plant response rating (0 to 100 scale) ([8]; 13 to 15 days): 98
Plant response rating, Pigweed [8, 11]: 95
Plant response rating, Pigweed [8, 12]: 100
Plant response rating, Pigweed [8, 13]: 100
Ragweed plant response rating (0 to 100 scale) ([9]; 13 to 15 days): 80
Plant response rating, Ragweed [9, 11]: 60
Plant response rating, Ragweed [9, 12]: 95
Plant response rating, Ragweed [9, 13]: 98
Oat, Wild plant response rating (0 to 100 scale) (wild oat (Avena fatua); 13 to 15 days): 45
Plant response rating, Oat, Wild (wild oat (Avena fatua); [11]): 30
Plant response rating, Oat, Wild (wild oat (Avena fatua); [12]): 80
Plant response rating, Oat, Wild (wild oat (Avena fatua); [13]): 85
Plant response rating, Flood, Rice (rice (Oryza sativa)): 60
Plant response rating, Rice (rice (Oryza sativa); [14]): 20
Plant response rating, Rice (rice (Oryza sativa); [15]): 30
Rice plant response rating (rice (Oryza sativa)): 20
Plant response rating, Flood, Sedge, Umbrella [10]: 100
Plant response rating, Sedge, Umbrella [10, 14]: 0
Plant response rating, Sedge, Umbrella [10, 15]: 85
Sedge, Umbrella plant response rating [10]: 0

CCCn1c(-c2cccc(C(F)(F)F)c2)ncc(C(=O)C2=C(O)CCCC2=O)c1=O [Compound 155]
Surinam Grass plant response rating (0 to 100 scale) ([1]; 13 to 15 days): 55
Plant response rating, Surinam Grass [1, 11]: 40
Plant response rating, Surinam Grass [1, 12]: 65
Plant response rating, Surinam Grass [1, 13]: 75
Blackgrass plant response rating (0 to 100 scale) ([2]; 13 to 15 days): 35
Plant response rating, Blackgrass [2, 11]: 10
Plant response rating, Blackgrass [2, 12]: 60
Plant response rating, Blackgrass [2, 13]: 65
Corn plant response rating (0 to 100 scale) (corn (Zea mays); 13 to 15 days): 25
Plant response rating, Corn (corn (Zea mays); [11]): 5
Plant response rating, Corn (corn (Zea mays); [12]): 40
Plant response rating, Corn (corn (Zea mays); [13]): 65
Foxtail, Giant plant response rating (0 to 100 scale) ([3]; 13 to 15 days): 80
Plant response rating, Foxtail, Giant [3, 11]: 65
Plant response rating, Foxtail, Giant [3, 12]: 90
Plant response rating, Foxtail, Giant [3, 13]: 95
Goosegrass plant response rating (0 to 100 scale) ([4]; 13 to 15 days): 80
Plant response rating, Goosegrass [4, 11]: 65
Plant response rating, Goosegrass [4, 12]: 85
Plant response rating, Goosegrass [4, 13]: 98
Foxtail, Green plant response rating (0 to 100 scale) ([5]; 13 to 15 days): 50
Plant response rating, Foxtail, Green [5, 11]: 25
Plant response rating, Foxtail, Green [5, 12]: 80
Plant response rating, Foxtail, Green [5, 13]: 80
Johnsongrass plant response rating (0 to 100 scale) ([6]; 13 to 15 days): 40
Plant response rating, Johnsongrass [6, 11]: 10
Plant response rating, Johnsongrass [6, 12]: 65
Plant response rating, Johnsongrass [6, 13]: 70
Lambsquarters plant response rating (0 to 100 scale) ([7]; 13 to 15 days): 100
Plant response rating, Lambsquarters [7, 11]: 98
Plant response rating, Lambsquarters [7, 12]: 100
Plant response rating, Lambsquarters [7, 13]: 100
Pigweed plant response rating (0 to 100 scale) ([8]; 13 to 15 days): 100
Plant response rating, Pigweed [8, 11]: 98
Plant response rating, Pigweed [8, 12]: 100
Plant response rating, Pigweed [8, 13]: 100
Ragweed plant response rating (0 to 100 scale) ([9]; 13 to 15 days): 70
Plant response rating, Ragweed [9, 11]: 45
Plant response rating, Ragweed [9, 12]: 90
Plant response rating, Ragweed [9, 13]: 95
Oat, Wild plant response rating (0 to 100 scale) (wild oat (Avena fatua); 13 to 15 days): 40
Plant response rating, Oat, Wild (wild oat (Avena fatua); [11]): 10
Plant response rating, Oat, Wild (wild oat (Avena fatua); [12]): 60
Plant response rating, Oat, Wild (wild oat (Avena fatua); [13]): 70
Plant response rating, Flood, Rice (rice (Oryza sativa)): 45
Plant response rating, Rice (rice (Oryza sativa); [14]): 0
Plant response rating, Rice (rice (Oryza sativa); [15]): 25
Rice plant response rating (rice (Oryza sativa)): 0
Plant response rating, Flood, Sedge, Umbrella [10]: 100
Plant response rating, Sedge, Umbrella [10, 14]: 60
Plant response rating, Sedge, Umbrella [10, 15]: 85
Sedge, Umbrella plant response rating [10]: 60
